Measurements published in patent US20220241311A1, “METHODS AND MATERIALS FOR TREATING GLYCOSYLATION DISORDERS” (priority 2018, published 2022).

Tested on: PGM1-CDG patients
Test: Oral D-gal supplementation: laboratory studies in blood (liver transaminases, coagulation, glycoproteins, CK, glucose)
Format: in vivo, human
From the text: The study design was an open-label prospective study. Patients with biochemically and genetically confirmed PGM1 deficiency were recruited into the study. Individuals with an existing diagnosis of aldolase B deficiency, galactosemia, hemolytic uremic syndrome, severe anemia, galactose intolerance, or intellectual disability were excluded from the study. Nine patients were enrolled in the study, five females and four males. Patient age ranged from 19 months to 21 years old at the time of enrollment (mean age 9.75 years). Informed written consent was obtained before the start of study. A primary end-point was to assess the safety and tolerability of oral D-gal supplementation and to identify physiological biomarkers that are responsive to D-gal supplementation in a heterogeneous genetic background. The effect of D-gal in PGM1-CDG patients was also monitored via glycomics. Secondary endpoints were the restoration of the plasma glycan subfractions, monitored via glycomics (Table 3), and normalization of antithrombin III activity and serum alanine transaminase (ALT) levels.
The D-gal intake was increased over the study period in increments as follows: weeks 0-6 (T0-T1), 0.5 g/kg per day; weeks 6-12 (T1-T2), 1.0 g/kg per day; weeks 12-18 (T2-T3), 1.5 g/kg per day (FIG. 2). The intake was increased gradually to reach the recommended maximum daily dose with minimal gastrointestinal irritation (diarrhea, stomachache, nausea) and metabolic side effects (presence of urinary galactitol).
Dietary assessment, clinical evaluation (general physical examination and anthropometric measurements), and laboratory and biochemical studies were completed every 6 weeks (T0, T1, T2 and T3).
Liver transaminases (aspartate transaminase (AST) and alanine transaminase (ALT)), creatine kinase (CK), commonly assayed glycoproteins (thyroid stimulating hormone (TSH), thyroxine-binding globulin (TBG), and insulin-like growth factor binding protein 3 (IGF3BP)), and coagulation parameters (Factor IX, Factor XI, activated […] (aPTT), and anti-thrombin III (ATIII)), were measured in blood. Patent 1 had additional Factor XI, and XIII measurements. Serum galactose-1-phosphate and urine galactitol were measured to monitor safety and tolerability of galactose supplementation. Biochemical studies to evaluate changes in glycosylation included isoelectric focusing (IEF) of serum transferrin and glycomic analysis in blood by mass spectrometry.
Patient 1 remained on D-gal 1 g/kg/day after the study period as D-gal is the only currently available compassionate treatment for PGM1-CDG. The parameters monitored during the study period, including additional coagulation factor measurements, have been followed as part of routine care (Table 4).
Quantitative data are presented as the mean±standard error of the mean.

[1] = patient 1, 1 g/kg/day for additional 12 months

O=C[C@H](O)[C@@H](O)[C@@H](O)[C@H](O)CO [D-gal, D-galactose]
ALT levels (T0 to T2, p=0.05): significantly decreased | ATIII, T0 vs T3 (all patient data, P=0.020): significant difference | AST (all patients except patient 2, 18 weeks): did not normalize at 18 weeks, it fell below baseline | AST (all patients, 6 weeks): moderately declined | AST (all patients, 12 weeks vs baseline): declined by 23% to more than 10-fold | Creatine kinase and glucose levels (during the study): fluctuated and remained abnormal | Frequency of hypoglycemic episodes (during the study): decreased significantly in four patients | Laboratory parameters at 1.5 g/kg/day compared to 1 g/kg/day (last 6 weeks of the trial): did not lead to significant improvement | ALT, aPTT, ATIII, TSH, TBG, long-term [1]: remained stable | Factor XI and Factor XIII, long-term [1]: returned to before-treatment levels | ATIII (patient 1, 18 weeks): remained within normal range | Factor XI (patient 1, after 12-18 weeks): normalized | Factor XIII (patient 1, after 12-18 weeks): normalized | Creatine kinase decrease, long-term (patient 1, over the course of one year): ~80% | TSH (patient 2 (abnormal baseline)): normalized at 18 weeks | ATIII vs baseline (patient 2, 18 weeks): twofold higher than baseline | AST (patient 2, 18 weeks, after discontinuing galactose for 2 weeks): spiked upwards, almost reaching baseline | ALT, excess over baseline (patient 2, 18 weeks, intercurrent illness): 18% | ATIII drop (patient 2, following illness and cessation of galactose intake): 30% | IGFBP-3 (patient 3): normalized at 18 weeks | TSH (patient 5 (abnormal baseline)): normalized at 6 weeks and remained stable at 12 and 18 weeks | ALT decrease (patient 5, 6 weeks): 43% | ATIII (patient 5, 6 weeks): transiently normalized | ALT above the upper limit of normal (patient 5, 12 and 18 weeks): 3% | ATIII below the lower limit of normal (patient 5, 12 and 18 weeks): 8% | IGFBP-3 (patient 6, 12 weeks): slight improvement | IGFBP-3 below the lower limit of normal (patient 6, 12 weeks): about 50% | TBG below the lower limit of normal (patient 6, 12 weeks): 8% | TBG improvement (patient 6, 12 weeks): 30% | TBG higher than the upper limit of normal (patient 9, 18 weeks): 80% | TBG decline (patient 9, 18 weeks, baseline twofold the upper limit of normal): 12% | ALT (patients 1, 2, 4, 7 (abnormal baseline)): normalized at 6 or 12 weeks | Factor IX levels (patients 1, 2, 5, 6, 9, 18 weeks): remained normal | IGFBP-3 (patients 1 and 2): normalized at 12 weeks and remained stable at 18 weeks | TBG (patients 1 and 2): normalized at 6 weeks and remained stable at 12 and 18 weeks | ATIII (patients 1 and 2, 12 weeks): normalized | aPTT (patients 1 and 7 (abnormal baseline)): normalized at 6 and 12 weeks, respectively | aPTT (patients 2, 3, 5, 6 (normal baseline)): remained stable
